Structures can show the parent of a compound that is named as a salt.
How the values were obtained:
[1] = target: human 5-HT3 serotonin receptors (Homo sapiens (Human), UniProt P46098); assay: [3H]BRL 43694 competition binding; details: CHO cell membranes, [3H]BRL 43694, Cheng Prusoff; read-out: h-5HT3 Ki
[2] = target: human α7 nAChRs transiently expressed in Xenopus laevis oocytes (Homo sapiens (Human), UniProt P36544); assay: Oocyte electrophysiology screen (TEVC); type: cell-based; details: 0.01 mM test compound, peak current relative to 0.2 mM ACh
Chain of human α7 nAChRs transiently expressed in Xenopus laevis oocytes (P36544 23-502 limits assumed): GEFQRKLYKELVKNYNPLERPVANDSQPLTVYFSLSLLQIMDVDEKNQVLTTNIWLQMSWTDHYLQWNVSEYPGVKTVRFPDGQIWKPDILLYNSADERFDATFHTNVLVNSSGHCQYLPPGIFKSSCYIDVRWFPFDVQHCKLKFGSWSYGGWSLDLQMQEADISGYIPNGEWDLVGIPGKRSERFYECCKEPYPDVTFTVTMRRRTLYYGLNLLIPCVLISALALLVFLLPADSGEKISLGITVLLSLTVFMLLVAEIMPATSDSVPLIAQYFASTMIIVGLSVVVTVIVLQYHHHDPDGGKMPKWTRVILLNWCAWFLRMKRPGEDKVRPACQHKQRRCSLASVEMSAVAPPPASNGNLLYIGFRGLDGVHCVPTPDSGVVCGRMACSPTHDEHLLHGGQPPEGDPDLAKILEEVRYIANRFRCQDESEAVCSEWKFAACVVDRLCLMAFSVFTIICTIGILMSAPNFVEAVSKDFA
Method in brief: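 Peak inward current from 0.01 mM compound, applied 30 s, is expressed relative to a 5 s 0.2 mM ACh reference response, in triplicate. Recordings used two-electrode voltage clamp at −80 mV in Xenopus oocytes with 90 s OR2 washes.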

Chain of human 5-HT3 serotonin receptors (P46098 24-478): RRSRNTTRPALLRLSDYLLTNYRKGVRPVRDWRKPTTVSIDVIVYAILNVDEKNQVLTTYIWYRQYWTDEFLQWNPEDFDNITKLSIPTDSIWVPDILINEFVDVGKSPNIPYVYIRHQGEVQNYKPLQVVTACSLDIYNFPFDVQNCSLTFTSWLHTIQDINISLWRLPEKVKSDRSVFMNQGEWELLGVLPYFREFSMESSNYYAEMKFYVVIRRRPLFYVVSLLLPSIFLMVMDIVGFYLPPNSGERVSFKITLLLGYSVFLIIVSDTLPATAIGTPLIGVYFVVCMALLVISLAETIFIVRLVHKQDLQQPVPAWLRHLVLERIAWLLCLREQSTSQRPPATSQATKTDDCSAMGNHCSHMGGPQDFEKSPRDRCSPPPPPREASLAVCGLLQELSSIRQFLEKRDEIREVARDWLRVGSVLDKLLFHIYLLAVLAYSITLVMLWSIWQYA

Row | Compound | Ki [1] [µM] | % ACh @ 10 μM Oocyte [2] [% ACh]
1 | CC1(C)[C@H](NC(=O)c2cc3cc(C(F)(F)F)ccc3s2)C2CCN1CC2 [(R)-17, (R)—N-(2,2-dimethylquinuclidin-3-yl)-5-(trifluoromethyl)benzo[b]thiophene-2-carboxamide hydrochloride] | > 10 | 0
2 | CC1(C)[C@H](NC(=O)c2cc3ccc(C4CC4)cc3s2)C2CCN1CC2 [(R)-18, (R)-6-cyclopropyl-N-(2,2-dimethylquinuclidin-3-yl)benzo[b]thiophene-2-carboxamide hydrochloride] | > 10 | 422
3 | CC1(C)[C@H](NC(=O)c2cc3cc(C4CC4)ccc3s2)C2CCN1CC2 [(R)-19, (R)-5-cyclopropyl-N-(2,2-dimethylquinuclidin-3-yl)benzo[b]thiophene-2-carboxamide hydrochloride] | 1.6 | 149
4 | COc1ccc2cc(C(=O)N[C@@H]3C4CCN(CC4)C3(C)C)sc2c1 [(R)-20, (R)—N-(2,2-dimethylquinuclidin-3-yl)-6-methoxybenzo[b]thiophene-2-carboxamide hydrochloride] | > 10 | 558
5 | CC1(C)[C@H](NC(=O)c2cc3ccoc3cn2)C2CCN1CC2 [(R)-22, (R)—N-(2,2-dimethylquinuclidin-3-yl)furo[2,3-c]pyridine-5-carboxamide hydrochloride] | 6.5 | 456
6 | CC1(C)[C@H](NC(=O)c2cc3c(cn2)OCCO3)C2CCN1CC2 [(R)-23, (R)—N-(2,2-dimethylquinuclidin-3-yl)-2,3-dihydro-[1,4]dioxino[2,3-c]pyridine-7-carboxamide hydrochloride] | > 10 | 82
7 | Cc1csc2ccc(C(=O)N[C@@H]3C4CCN(CC4)C3(C)C)cc12 [(R)-24, (R)—N-(2,2-dimethylquinuclidin-3-yl)-3-methylbenzo[b]thiophene-5-carboxamide hydrochloride] | 0.82 | 240
8 | CC1(C)[C@H](NC(=O)c2cc3cccnc3s2)C2CCN1CC2 [(R)-28, (R)—N-(2,2-dimethylquinuclidin-3-yl)thieno[2,3-b]pyridine-2-carboxamide hydrochloride] | > 10 | 321
9 | CC1(C)[C@H](NC(=O)c2ccc3sccc3c2)C2CCN1CC2 [(R)-30, (R)—N-(2,2-dimethylquinuclidin-3-yl)benzo[b]thiophene-5-carboxamide hydrochloride] | 2.3 | 396
10 | CC1(C)[C@H](NC(=O)c2cnc3occc3c2)C2CCN1CC2 [(R)-36, (R)—N-(2,2-dimethylquinuclidin-3-yl)furo[2,3-b]pyridine-5-carboxamide hydrochloride] | > 10 | 1
11 | CC1(C)[C@H](NC(=O)c2cc3ccsc3cn2)C2CCN1CC2 [(R)-43, (R)—N-(2,2-dimethylquinuclidin-3-yl)thieno[2,3-c]pyridine-5-carboxamide hydrochloride] | 1.5 | 951
12 | CC1(C)[C@H](NC(=O)c2cc3ccc(Br)cc3s2)C2CCN1CC2 [(R)-46, (R)-6-bromo-N-(2,2-dimethylquinuclidin-3-yl)benzo[b]thiophene-2-carboxamide hydrochloride] | > 10 | 301
13 | CC1(C)[C@H](NC(=O)c2cc3ccc(S(C)(=O)=O)cc3s2)C2CCN1CC2 [(R)-48, (R)—N-(2,2-dimethylquinuclidin-3-yl)-6-(methylsulfonyl)benzo[b]thiophene-2-carboxamide hydrochloride] | > 10 | 0
14 | COc1ccc2cc(C(=O)N[C@@H]3C4CCN(CC4)C3(C)C)sc2c1F [(R)-51, (R)—N-(2,2-dimethylquinuclidin-3-yl)-7-fluoro-6-methoxybenzo[b]thiophene-2-carboxamide hydrochloride] | > 10 | 326
15 | Cc1ccc2cc(C(=O)N[C@@H]3C4CCN(CC4)C3(C)C)sc2c1Cl [(R)-52, (R)-7-chloro-N-(2,2-dimethylquinuclidin-3-yl)-6-methylbenzo[b]thiophene-2-carboxamide hydrochloride] | 0.64 | 844
16 | Cc1ccc2cc(C(=O)N[C@@H]3C4CCN(CC4)C3(C)C)sc2c1F [(R)-53, (R)—N-(2,2-dimethylquinuclidin-3-yl)-7-fluoro-6-methylbenzo[b]thiophene-2-carboxamide hydrochloride] | 5.9 | 576
17 | O=C(N[C@@H]1C2CCN(CC2)C12CC2)c1ccc2occc2c1 [(R)-59, (R)—N-(1′-azaspiro[cyclopropane-1,2′-bicyclo[2.2.2]octan]-3′-yl)benzofuran-5-carboxamide hydrochloride] | 6.8 | 374
18 | O=C(N[C@@H]1C2CCN(CC2)C12CC2)c1cc2ccoc2cn1 [(R)-75, (R)—N-(1′-azaspiro[cyclopropane-1,2′-bicyclo[2.2.2]octan]-3′-yl)furo[2,3-c]pyridine-5-carboxamide hydrochloride] | 3.3 | 594
19 | Cc1csc2ccc(C(=O)N[C@@H]3C4CCN(CC4)C34CC4)cc12 [(R)-77, (R)-3-methyl-N-(1′-azaspiro[cyclopropane-1,2′-bicyclo[2.2.2]octan]-3′-yl)benzo[b]thiophene-5-carboxamide hydrochloride] | 0.66 | 547
20 | Cc1csc2cc(C(=O)N[C@@H]3C4CCN(CC4)C34CC4)ccc12 [(R)-78, (R)-3-methyl-N-(1′-azaspiro[cyclopropane-1,2′-bicyclo[2.2.2]octan]-3′-yl)benzo[b]thiophene-6-carboxamide hydrochloride] | 2.1 | 31
21 | O=C(N[C@@H]1C2CCN(CC2)C12CC2)c1ccc2cc[nH]c2c1 [(R)-79, (R)—N-(1′-azaspiro[cyclopropane-1,2′-bicyclo[2.2.2]octan]-3′-yl)-1H-indole-6-carboxamide] | 0.75 | 758
22 | O=C(N[C@@H]1C2CCN(CC2)C12CC2)c1ccc2sccc2c1 [(R)-83, (R)—N-(1′-azaspiro[cyclopropane-1,2′-bicyclo[2.2.2]octan]-3′-yl)benzo[b]thiophene-5-carboxamide hydrochloride] | 2.4 | 558
23 | O=C(N[C@@H]1C2CCN(CC2)C12CC2)c1ccc2ccoc2c1 [(R)-84, (R)—N-(1′-azaspiro[cyclopropane-1,2′-bicyclo[2.2.2]octan]-3′-yl)benzofuran-6-carboxamide hydrochloride] | 4.7 | 341
24 | Cc1nc2cc(C(=O)N[C@@H]3C4CCN(CC4)C34CC4)ccc2o1 [(R)-85, (R)-2-methyl-N-(1′-azaspiro[cyclopropane-1,2′-bicyclo[2.2.2]octan]-3′-yl)benzo[d]oxazole-5-carboxamide] | > 10 | 188
25 | Cc1nc2ccc(C(=O)N[C@@H]3C4CCN(CC4)C34CC4)cc2o1 [(R)-86, (R)-2-methyl-N-(1′-azaspiro[cyclopropane-1,2′-bicyclo[2.2.2]octan]-3′-yl)benzo[d]oxazole-6-carboxamide] | > 10 | 67
